Source: patent US4432983A (Research Corporation, priority 1981, dated 1984)
“Also recorded” adds a separate entry of the source.

Columns and labels:
[1] = biological target: T1, histamine H2-receptor (isolated guinea pig right atrium) (Cavia porcellus, UniProt P47747); assay: Histamine H2-receptor antagonism: histamine-induced chronotropic response of isolated guinea pig right atrium; conditions: for ED50 of histamine (95% CL): histamine ED50 for increase in heart rate, 10^-6 M propranolol; for ED50 of histamine (95% CL) / Slope (95% CL): alone (control) or in presence of 10^-6 M compound, 95% CL in brackets; for slope / shift of the histamine log dose-response curve in presence of compound / histamine H2-receptor antagonist activity: result in words; for histamine H2-receptor antagonist activity: 10^-6 M, guinea pig right atrium; for Slope (95% CL): slope of histamine log dose-response regression line; for ED50 of histamine on the right atrium: histamine alone or with 10^-6 M antagonist, ± as printed in text
T1 construct: All other tissue was carefully trimmed away, leaving only the right atrium; from tissue; host or cells: isolated right atrium of guinea pig (Hartley strain) heart
T1 sequence (P47747 whole entry): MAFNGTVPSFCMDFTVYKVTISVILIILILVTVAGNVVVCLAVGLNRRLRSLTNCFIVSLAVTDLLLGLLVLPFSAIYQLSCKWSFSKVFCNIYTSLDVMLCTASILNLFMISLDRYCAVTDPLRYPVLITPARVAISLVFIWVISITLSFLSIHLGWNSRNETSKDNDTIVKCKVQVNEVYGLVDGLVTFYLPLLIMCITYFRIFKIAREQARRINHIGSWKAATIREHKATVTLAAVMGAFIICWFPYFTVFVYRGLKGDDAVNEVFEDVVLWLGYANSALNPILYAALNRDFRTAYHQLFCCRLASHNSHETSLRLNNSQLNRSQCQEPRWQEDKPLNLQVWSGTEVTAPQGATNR
Protocol: Guinea pigs (Hartley strain) of either sex (400-700 g) were allowed at least two weeks acclimation period. The animals were housed two per cage in wire-meshed bottom stainless steel cages in animal quarters maintained on a 12 hour light:12 hour dark cycle with ambient temperature of approximately 24° C. Food (Ralston-Purina guinea pig chow #5025) and water were provided ad libitum.
(§1) The animals were stunned by a blow to the head and the heart was quickly removed and placed in Tyrode's solution (composition in g/L of distilled water: NaCl, 8.00; KCl, 0.20; MgSO4.7 H2 O, 0.10; CaCl2, 0.20; NaH2 PO4, 0.05; NaHCO3, 1.00; glucose, 1.00) at room temperature. All other tissue was carefully trimmed away, leaving only the right atrium. The base of the atrium was attached to a fixed pin in a 50 mL Magnus bath of the overflow type, while the atrial apex was similarly connected to a physiograph (Narco Bio-Systems) via a photoelectric force transducer (Narco Bio-Systems, sensitivity=0.05 g/cm). A 400 mg tension was constantly applied to the tissue. The Magnus bath was surrounded by water maintained at 37° C. with a constant temperature circulating pump. The bath was continually oxygenated (95% O2, 5% CO2) via a sintered glass gas delivery tube directly beneath the tissue support base.
Propanolol (1×10^-6 M) was added to each preparation in order to eliminate the influence of endogenously stored catecholamine release. Following the addition of propanolol, test compound was added and the tissue was allowed to equilibrate for 30 minutes.
Solutions of the test compounds were similarly prepared.
A straight line was fitted to the data points of each determination within each group by linear regression analysis. The slope and the ED50 were calculated from the regression line, the slopes and ED50 values of each group were averaged, and the standard deviations were calculated. Calculation of the linear regression gave values for the correlation coefficient (r) slope, average of x values, average of y values, and log ED50. With this information a straight line representing a mean of the data from the separate determinations of each group could be plotted, i.e. a straight line passing through the mean x value and the mean y value and having the mean slope. The 95 percent confidence limits were calculated using the following formula: confidence limits=±ts√N where t=Student's t value, s=standard deviation, and N=number of determinations.

[2] = biological target: histamine H1-receptor (isolated guinea pig ileum) (Cavia porcellus, UniProt P31389); assay: Histamine H1-receptor antagonism: histamine-induced contraction of isolated guinea pig ileum; conditions: result in words, 1×10^-6 M
histamine H1-receptor (isolated guinea pig ileum), sequence (P31389 whole entry): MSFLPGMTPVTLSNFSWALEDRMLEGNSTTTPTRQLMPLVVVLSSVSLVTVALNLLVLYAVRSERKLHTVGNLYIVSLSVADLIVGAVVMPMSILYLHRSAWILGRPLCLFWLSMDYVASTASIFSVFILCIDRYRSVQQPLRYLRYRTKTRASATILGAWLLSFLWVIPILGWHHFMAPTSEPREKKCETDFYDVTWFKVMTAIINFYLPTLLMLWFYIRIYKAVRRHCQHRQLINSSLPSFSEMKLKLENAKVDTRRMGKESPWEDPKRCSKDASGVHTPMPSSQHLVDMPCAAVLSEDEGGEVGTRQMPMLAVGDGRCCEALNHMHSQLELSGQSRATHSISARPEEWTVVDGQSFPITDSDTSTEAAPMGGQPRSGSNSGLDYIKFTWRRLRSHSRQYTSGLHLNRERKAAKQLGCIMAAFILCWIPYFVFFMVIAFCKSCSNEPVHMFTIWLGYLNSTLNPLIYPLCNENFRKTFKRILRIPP
Protocol: Compounds 11, 17, 18, and 19 were screened for H1 -antihistaminic activity by observing if any significant blockage of histamine-induced contraction of the isolated guinea pig ileum occurred. After sacrificing the guinea pig by a blow to the head, longitudinal segments of the terminal ileum were removed and freed of mesentery and blood vessels. The same apparatus and physiological solution employed in the atrial preparation were used in these experiments. The tissue was loaded with a 500 mg tension and adjustments were made repeatedly until the baseline stabilized at this tension load. Atropine sulfate (1×10^-6 M) was added to block the influence of endogenously stored acetylcholine and the preparation was allowed to equilibrate for 15 minutes before any other compounds were added. The concentration of test compound used was 1×10^-6 M. Visual determination of the absence of significant reduction in histamine-induced contractions of the ileum in the presence and absence of each test compound was interpreted as an absence of H1 -antihistaminic activity. Generally, H1 -antagonism is considered to be potent if significant reduction in ileal contractility occurs with antagonist concentrations less than micromolar.

isolated right atrium = assay: Agonist activity: effect of compound alone on heart rate or force of isolated right atrium; design: species or system guinea pig; conditions: cumulative additions, 10^-5 to 10^-3 M
Protocol: as §1
A KB value was not calculated since the utility of these values is contingent upon the presence of competitive inhibition. […] A non-competitive component of the antagonism would be expected to depress the curve. […] An additional experiment adding only 11 to the bath was carried out in an attempt to detect possible interfering agonist activity. […] The reason for this atypical curve is not known.

[3] = tested on: H2-receptor (guinea pig isolated right atrium); conditions: cited from earlier work
[4] = tested on: histamine-induced gastric acid secretion; conditions: dogs; cited from earlier work
peptic ulcers = conditions: cited from earlier work
H2-receptor = conditions: previously reported; read-out: KB (apparent dissociation constant), previously reported; cited from earlier work

Which “maximum response obtained with histamine in presence of compound” value ([1]; 10^-6 M compound) does the source give for `CNC(=S)N[C@@H]1C[C@H]2CC[C@@H](C1)N2Cc1nc[nH]c1C` [Compound 11, N-Methyl-N'-[8-(5-methylimidazol-4-yl)methyl-1αH,5αH-nortropan-3β-yl]thiourea] here?
Its value is 100%.

What about the “ED50 of histamine (95% CL)” value [1] of the same compound?
The value was 40.7 (27.5-60.3) × 10^-7 M.

What about the “slope / shift of the histamine log dose-response curve in presence of compound” value ([1]; 10^-6 M compound) of the same compound?
Its value is “significantly steeper (P<0.05) than for metiamide; also recorded: shifted to higher concentrations”.

And the “histamine H2-receptor antagonist activity” value [1]?
Its value is “active; also recorded: approximately the same antagonist activity as metiamide”.

And the “histamine H2-receptor antagonist activity” value ([1]; listed as β-isomer)?
Its value is “high H2 -antagonist activity”.

What about the “Slope (95% CL)” value [1] of the same compound?
Its value is 0.99 (0.95-1.03).

What about the H1-antihistaminic activity [2] of the same compound?
Its H1-antihistaminic activity is “none of these compounds demonstrated significant H1 -antihistiminic activity”.

And the “effect on heart rate or force of isolated right atrium, compound alone” value (isolated right atrium)?
Its value is “without effect on heart rate or force”.

Which “ED50 of histamine (95% CL)” value [1] does the source give for `CNC(=S)N[C@H]1C[C@H]2CC[C@@H](C1)N2Cc1nc[nH]c1C` [Compound 17, N-Methyl-N'-[8-(5-methylimidazol-4-yl)methyl-1αH,5αH-nortropan-3α-yl]thiourea] here?
The value was 11.0 (4.37-27.5) × 10^-7 M.

What about the “histamine H2-receptor antagonist activity” value [1] of the same compound?
The value was “without any significant activity; also recorded: None of these compounds demonstrated significant histamine antagonist activity”.

And the “Slope (95% CL)” value [1]?
Its value is 0.64 (0.18-1.10).

And the H1-antihistaminic activity [2]?
Its H1-antihistaminic activity is “None of these compounds demonstrated significant histamine antagonist activity”.

With `CNC(=NC#N)N[C@H]1C[C@H]2CC[C@@H](C1)N2Cc1nc[nH]c1C` [Compound 18, N"-Cyano-N-methyl-N'-[8-(5-methylimidazol-4-yl)methyl-1αH,5αH-nortropan-3α-yl]guanidine] as the compound, how does the “ED50 of histamine (95% CL)” value [1] read?
Its value is 11.0 (5.01-24.0) × 10^-7 M.

What about the “histamine H2-receptor antagonist activity” value [1] of the same compound?
The value was “without significant activity; also recorded: None of these compounds demonstrated significant histamine antagonist activity”.

And the “Slope (95% CL)” value [1]?
Its value is 0.64 (0.18-1.10).

What about the H1-antihistaminic activity [2] of the same compound?
Its H1-antihistaminic activity is “None of these compounds demonstrated significant histamine antagonist activity”.

What does the source list for `CNC(=NC#N)N[C@@H]1C[C@H]2CC[C@@H](C1)N2Cc1nc[nH]c1C` [Compound 19, N"-Cyano-N-methyl-N'-[8-(5-methylimidazol-4-yl)methyl-1αH,5αH-nortropan-3β-yl]guanidine]?
ED50 of histamine (95% CL) [1]: 6.92 (0.22-138.0) × 10^-7 M; histamine H2-receptor antagonist activity [1]: without significant activity; also recorded: None of these compounds demonstrated significant histamine antagonist activity; Slope (95% CL) [1]: 0.58 (0.23-0.93); H1-antihistaminic activity [2]: None of these compounds demonstrated significant histamine antagonist activity

With `CNC(=C[N+](=O)[O-])NCCSCc1ccc(CN(C)C)o1` [Ranitidine] as the compound, how does the H2 antagonism [3] read?
The H2 antagonism was “competitive antagonist, more potent than cimetidine”.

And the “prevention of histamine-induced gastric acid secretion” value [4]?
Its value is “more potent than cimetidine”.

Which “ED50 of histamine (95% CL)” value [1] does the source give for `CN/C(=N/CCSCc1nc[nH]c1C)NC#N` [cimetidine, reference compound] here?
Its value is 49.0 (43.7-55.0) × 10^-7 M.

And the “ED50 of histamine on the right atrium” value [1]?
The value was 49.0±12.0 ×10^-7 M.

And the “histamine H2-receptor antagonist activity” value [1]?
Its value is “significant antagonism of the chronotropic effect of histamine”.

What about the “Slope (95% CL)” value [1] of the same compound?
Its value is 0.67 (0.28-1.06).

What about the “safety in clinical use” value (peptic ulcers) of the same compound?
The value was “generally a safe agent”.

With `NCCc1c[nH]cn1` [histamine, reference compound] as the compound, how does the “Slope (95% CL)” value [1] read?
Its value is 0.63 (0.50-0.76).

Which results are given for `CNC(=S)NCCSCc1nc[nH]c1C` [metiamide, reference compound]?
Kb ([1]; KB=[B]/(dose ratio-1), 10^-6 M antagonist, read-out: KB (apparent dissociation constant)): 0.2 µM; ED50 of histamine (95% CL) [1]: 49.0 (30.9-77.6) × 10^-7 M; ED50 of histamine on the right atrium [1]: 49.0±12.0 ×10^-7 M; slope / shift of the histamine log dose-response curve in presence of compound ([1]; 10^-6 M compound): parallel shift of the dose-response curves of histamine; histamine H2-receptor antagonist activity [1]: significant antagonism of the chronotropic effect of histamine; Slope (95% CL) [1]: 0.47 (0.41-0.53); healing of peptic ulcers (peptic ulcers; clinical trials): effective in promoting the healing of peptic ulcers; safety in clinical use (peptic ulcers): found to produce agranulocytosis; Kb (H2-receptor): 0.92 µM
